{"source": "ChEMBL document CHEMBL1128032", "about": "“Synthesis and antiviral activity of amino acid esters of ribavirin” (1994)", "key": {"Influenza A virus [1]": {"tested_on": "Influenza A virus", "assay": "Antiviral activity against influenza virus A strain H7N7 (FPV) was determined as zone of cytotoxicity", "type": "functional, unidentified influenza virus"}, "Influenza A virus [2]": {"tested_on": "Influenza A virus", "assay": "Antiviral activity against influenza virus A strain H7N7 (FPV) was determined as zone of plaque inhibition", "type": "functional, unidentified influenza virus"}, "Influenza A virus [3]": {"tested_on": "Influenza A virus", "assay": "Antiviral effect against influenza virus A strain H7N7 (FPV) by the difference between zone of plaque inhibition and zone of cytotoxicity", "type": "functional, unidentified influenza virus"}, "Suid alphaherpesvirus 1 [4]": {"tested_on": "Suid alphaherpesvirus 1", "assay": "Antiviral activity against pseudorabies virus strain Anjeszky A2 was determined as zone of cytotoxicity", "type": "functional", "design": "unit not given here"}, "Suid alphaherpesvirus 1 [5]": {"tested_on": "Suid alphaherpesvirus 1", "assay": "Antiviral activity against pseudorabies virus strain Anjeszky A2 was determined as zone of plaque inhibition", "type": "functional", "design": "unit not given here"}, "Newcastle disease virus [6]": {"tested_on": "Newcastle disease virus", "assay": "Antiviral activity against newcastle disease virus strain Russeff (NDV) was determined as zone of cytotoxicity", "type": "functional, avian paramyxovirus 1", "design": "unit not given here"}, "Newcastle disease virus [7]": {"tested_on": "Newcastle disease virus", "assay": "Antiviral activity against newcastle disease virus strain Russeff (NDV) was determined as zone of plaque inhibition", "type": "functional, avian paramyxovirus 1"}, "Newcastle disease virus [8]": {"tested_on": "Newcastle disease virus", "assay": "Antiviral effect against newcastle disease virus strain Russeff (NDV) by the difference between zone of plaque inhibition and zone of cytotoxicity; (11-12 mm)", "type": "functional, avian paramyxovirus 1"}, "Suid alphaherpesvirus 1 [9]": {"tested_on": "Suid alphaherpesvirus 1", "assay": "Antiviral effect against pseudorabies virus strain Anjeszky A2 by the difference between zone of plaque inhibition and zone of cytotoxicity; (6-10 mm)", "type": "functional"}, "Suid alphaherpesvirus 1 [10]": {"tested_on": "Suid alphaherpesvirus 1", "assay": "Antiviral effect against pseudorabies virus strain Anjeszky A2 by the difference between zone of plaque inhibition and zone of cytotoxicity", "type": "functional"}, "Newcastle disease virus [11]": {"tested_on": "Newcastle disease virus", "assay": "Antiviral effect against newcastle disease virus strain Russeff (NDV) by the difference between zone of plaque inhibition and zone of cytotoxicity", "type": "functional, avian paramyxovirus 1"}, "Influenza A virus [12]": {"tested_on": "Influenza A virus", "assay": "Antiviral effect against influenza virus A strain H7N7 (FPV) by the difference between zone of plaque inhibition and zone of cytotoxicity; (6-10 mm)", "type": "functional, unidentified influenza virus"}, "Newcastle disease virus [13]": {"tested_on": "Newcastle disease virus", "assay": "Antiviral effect against newcastle disease virus strain Russeff (NDV) by the difference between zone of plaque inhibition and zone of cytotoxicity; (6-10 mm)", "type": "functional, avian paramyxovirus 1"}, "Influenza A virus [14]": {"tested_on": "Influenza A virus", "assay": "Antiviral effect against influenza virus A strain H7N7 (FPV) by the difference between zone of plaque inhibition and zone of cytotoxicity; (11-12 mm)", "type": "functional, unidentified influenza virus"}, "Suid alphaherpesvirus 1 [15]": {"tested_on": "Suid alphaherpesvirus 1", "assay": "Antiviral effect against pseudorabies virus strain Anjeszky A2 by the difference between zone of plaque inhibition and zone of cytotoxicity; (21-40 mm)", "type": "functional"}, "Newcastle disease virus [16]": {"tested_on": "Newcastle disease virus", "assay": "Antiviral effect against newcastle disease virus strain Russeff (NDV) by the difference between zone of plaque inhibition and zone of cytotoxicity; (21-40 mm)", "type": "functional, avian paramyxovirus 1"}}}
{"compound": "CC(C)(C)OC(=O)NCC(=O)OC[C@H]1O[C@@H](n2cnc(C(N)=O)n2)[C@@H]2OC(C)(C)O[C@@H]21", "values": [{"measurement": "Activity", "setting": "Influenza A virus [1]", "result": 10.2, "unit": "mm"}, {"measurement": "Activity", "setting": "Influenza A virus [2]", "result": 0, "unit": "mm"}, {"measurement": "Activity", "setting": "Influenza A virus [3]", "result": 5, "unit": "mM"}, {"measurement": "Activity", "setting": "Suid alphaherpesvirus 1 [4]", "result": 15}, {"measurement": "Activity", "setting": "Suid alphaherpesvirus 1 [5]", "result": 23.5}, {"measurement": "Activity", "setting": "Newcastle disease virus [6]", "result": 19}, {"measurement": "Activity", "setting": "Newcastle disease virus [7]", "result": 31.5, "unit": "mm"}, {"measurement": "Activity", "setting": "Newcastle disease virus [8]", "result": 12, "unit": "mM"}, {"measurement": "Activity", "setting": "Suid alphaherpesvirus 1 [9]", "result": 10, "unit": "mM"}]}
{"compound": "CC(C)(C)OC(=O)N[C@@H](Cc1c[nH]c2ccccc12)C(=O)OCC1OC(n2cnc(C(N)=O)n2)C2OC(C)(C)OC12", "note": "(stereo partly drawn)", "values": [{"measurement": "Activity", "setting": "Influenza A virus [1]", "result": 10.7, "unit": "mm"}, {"measurement": "Activity", "setting": "Influenza A virus [2]", "result": 15.7, "unit": "mm"}, {"measurement": "Activity", "setting": "Influenza A virus [3]", "result": 5, "unit": "mM"}, {"measurement": "Activity", "setting": "Suid alphaherpesvirus 1 [4]", "result": 9}, {"measurement": "Activity", "setting": "Suid alphaherpesvirus 1 [5]", "result": 0}, {"measurement": "Activity", "setting": "Suid alphaherpesvirus 1 [10]", "result": 5, "unit": "mm"}, {"measurement": "Activity", "setting": "Newcastle disease virus [6]", "result": 10.7}, {"measurement": "Activity", "setting": "Newcastle disease virus [7]", "result": 0, "unit": "mm"}, {"measurement": "Activity", "setting": "Newcastle disease virus [11]", "result": 5, "unit": "mM"}]}
{"compound": "CC(C)(C)OC(=O)N1CCC[C@H]1C(=O)OCC1OC(n2cnc(C(N)=O)n2)C2OC(C)(C)OC12", "note": "(stereo partly drawn)", "values": [{"measurement": "Activity", "setting": "Influenza A virus [1]", "result": 14, "unit": "mm"}, {"measurement": "Activity", "setting": "Influenza A virus [2]", "result": 22.8, "unit": "mm"}, {"measurement": "Activity", "setting": "Influenza A virus [12]", "result": 10, "unit": "mM"}, {"measurement": "Activity", "setting": "Suid alphaherpesvirus 1 [4]", "result": 10}, {"measurement": "Activity", "setting": "Suid alphaherpesvirus 1 [5]", "result": 0}, {"measurement": "Activity", "setting": "Suid alphaherpesvirus 1 [10]", "result": 5, "unit": "mm"}, {"measurement": "Activity", "setting": "Newcastle disease virus [6]", "result": 8.7}, {"measurement": "Activity", "setting": "Newcastle disease virus [7]", "result": 16.5, "unit": "mm"}, {"measurement": "Activity", "setting": "Newcastle disease virus [13]", "result": 10, "unit": "mM"}]}
{"compound": "CC(C)(C)OC(=O)N[C@@H](Cc1ccccc1)C(=O)OCC1OC(n2cnc(C(N)=O)n2)C2OC(C)(C)OC12", "note": "(stereo partly drawn)", "values": [{"measurement": "Activity", "setting": "Influenza A virus [1]", "result": 9.2, "unit": "mm"}, {"measurement": "Activity", "setting": "Influenza A virus [2]", "result": 19.3, "unit": "mm"}, {"measurement": "Activity", "setting": "Influenza A virus [14]", "result": 12, "unit": "mM"}, {"measurement": "Activity", "setting": "Suid alphaherpesvirus 1 [4]", "result": 16.5}, {"measurement": "Activity", "setting": "Suid alphaherpesvirus 1 [5]", "result": 0}, {"measurement": "Activity", "setting": "Suid alphaherpesvirus 1 [10]", "result": 5, "unit": "mm"}, {"measurement": "Activity", "setting": "Newcastle disease virus [6]", "result": 16.5}, {"measurement": "Activity", "setting": "Newcastle disease virus [7]", "result": 0, "unit": "mm"}, {"measurement": "Activity", "setting": "Newcastle disease virus [11]", "result": 5, "unit": "mM"}]}
{"compound": "CC(C)C[C@H](NC(=O)OC(C)(C)C)C(=O)OCC1OC(n2cnc(C(N)=O)n2)C2OC(C)(C)OC12", "note": "(stereo partly drawn)", "values": [{"measurement": "Activity", "setting": "Influenza A virus [1]", "result": 8.3, "unit": "mm"}, {"measurement": "Activity", "setting": "Influenza A virus [2]", "result": 16.8, "unit": "mm"}, {"measurement": "Activity", "setting": "Influenza A virus [12]", "result": 10, "unit": "mM"}, {"measurement": "Activity", "setting": "Suid alphaherpesvirus 1 [4]", "result": 16}, {"measurement": "Activity", "setting": "Suid alphaherpesvirus 1 [5]", "result": 18}, {"measurement": "Activity", "setting": "Suid alphaherpesvirus 1 [10]", "result": 5, "unit": "mm"}, {"measurement": "Activity", "setting": "Newcastle disease virus [6]", "result": 16}, {"measurement": "Activity", "setting": "Newcastle disease virus [7]", "result": 28, "unit": "mm"}, {"measurement": "Activity", "setting": "Newcastle disease virus [8]", "result": 12, "unit": "mM"}]}
{"compound": "NC(=O)c1ncn([C@@H]2O[C@H](CO)[C@@H](O)[C@H]2O)n1", "note": "[RIBAVIRIN]", "values": [{"measurement": "Activity", "setting": "Influenza A virus [14]", "result": 12, "unit": "mM"}, {"measurement": "Activity", "setting": "Suid alphaherpesvirus 1 [15]", "result": 40, "unit": "mM"}, {"measurement": "Activity", "setting": "Newcastle disease virus [16]", "result": 40, "unit": "mM"}]}
